Columns and labels:
[1] = Evaluation method 2: quantitating improvement of unpleasant flavor of potassium chloride as K/Na ratio against standard solutions, chicken stock soup; conditions: for improvement effect against the unpleasant flavor of potassium chloride: glycoside or aglycone 25 ppm final in standard solution 8, FIG. 17
Protocol: 1.32 g of Chinese soup stock granules (product name=“Marudori-gara Soup”, manufactured by Ajinomoto K.K., standard nutritional ingredients of 2.5 g of Chinese soup stock granules are shown in Table 1) was dissolved in 70 g of distilled water, and the mixture was filtered through filter paper (filter paper no. 2, manufactured by Advantec Toyo K.K.). Thereafter, 0.63 g of NaCl was added, and water was further added to obtain 100 g of chicken stock soup containing an equivalent of 1.26 percent table salt (Table 2, standard solution 1). The concentration of sodium chloride was decreased in a stepwise manner from the composition of the standard solution 1, and potassium chloride was added to produce multiple chicken stock soups (Table 2, standard solutions 2 to 8). The ratio of potassium chloride to sodium chloride ((potassium chloride concentration/sodium chloride concentration)×100(%), referred to hereinafter as “K/Na ratio”) was changed in standard solutions 1 to 8, and the intensity of the unpleasant flavor (i.e. bitterness, astringent taste, harsh taste, and bitter taste) characteristic of potassium chloride increased as the K/Na ratio value increased. The unpleasant flavor intensity increased in a stepwise manner for standard solutions 1 to 8. Intensity of this unpleasant flavor and detailed taste were evaluated by organoleptic evaluation by an expert panel, and results of evaluation were classified in three stages, i.e. initial taste, middle taste, and aftertaste.
A desired concentration of test solution was added to one of the standard solutions of Table 2 to produce an evaluation solution. At this time, for a test sample containing sodium chloride or potassium chloride, the evaluation solution was adjusted such that the total sodium chloride concentration or total potassium chloride concentration of the evaluation solution was equivalent to the respective standard solution. The standard solutions 1 to 8 of Table 2 are indicated in order of potassium chloride concentration. These evaluation solutions were compared to the standard solution, and the corresponding unpleasant flavor of potassium chloride was expressed as a K/Na ratio. The improvement effect was indicated as higher as the ratio of K/Na ratio obtained by evaluation to actual K/Na ratio decreased.

[2] = Evaluation method 1: expert panel ranking of potassium chloride unpleasant flavor intensity (normalized rank method), chicken stock soup; conditions: for effect of phospholipid for improvement of unpleasant flavor of potassium chloride: phospholipid 0.02 percent in standard solution 8, FIG. 21
[3] = Unpleasant taste distinguishable concentration of potassium chloride, blind ranking by panel; conditions: chicken stock soup models, panel n=11; FIG. 28
Protocol: 1.32 g of Chinese soup stock granules (product name=“Marudori-gara Soup”, manufactured by Ajinomoto K.K., standard nutritional ingredients of 2.5 g of Chinese soup stock granules are shown in Table 1) was dissolved in 70 g of distilled water, and the mixture was filtered through filter paper (filter paper no. 2, manufactured by Advantec Toyo K.K.). Thereafter, 0.63 g of NaCl was added, and water was further added to obtain 100 g of chicken stock soup containing an equivalent of 1.26 percent table salt (Table 2, standard solution 1). The concentration of sodium chloride was decreased in a stepwise manner from the composition of the standard solution 1, and potassium chloride was added to produce multiple chicken stock soups (Table 2, standard solutions 2 to 8). […] Intensity of this unpleasant flavor and detailed taste were evaluated by organoleptic evaluation by an expert panel, and results of evaluation were classified in three stages, i.e. initial taste, middle taste, and aftertaste.
Standard solutions 1 to 7 (with the exception of standard solution 2) were evaluated by a panel (n=11) by blind-testing to determine the order of potassium chloride unpleasant flavor intensity.

Compound	improvement effect against the unpleasant flavor of potassium chloride [1]	effect of phospholipid for improvement of unpleasant flavor of potassium chloride [2]	also measured
O=c1cc(-c2ccc(O)cc2)oc2cc(O[C@@H]3O[C@H](CO)[C@@H](O)[C@H](O)[C@H]3O)cc(O)c12 [apigenin 7-glucoside, Apigenin 7-glucoside]	high effect	–	–
O=c1c(-c2ccc(O)cc2)coc2cc(O[C@@H]3O[C@H](CO)[C@@H](O)[C@H](O)[C@H]3O)ccc12 [daidzin, Daidzin]	high effect	–	–
Phosphatidylinositol [PI]	–	high effects	–
[Cl-].[K+] [potassium chloride]	–	–	K/Na ratio at which unpleasant flavor of potassium chloride was not generally recognized [3]: less than or equal to 57%
O=c1cc(-c2ccc(O)cc2)oc2cc(O)cc(O)c12 [apigenin, Apigenin]	high effect	–	–
Phosphatidylcholine [PC]	–	high effects	–
Phosphatidic acid [PA, reference compound]	–	low	–
Phosphatidylserine [PS]	–	high effects	–
C[C@@H]1O[C@@H](O[C@H]2[C@H](Oc3cc(O)c4c(c3)O[C@H](c3ccc(O)cc3)CC4=O)O[C@H](CO)[C@@H](O)[C@@H]2O)[C@H](O)[C@H](O)[C@H]1O [naringin, Naringin, reference compound]	improvement effect was not found	–	–
O=c1cc(-c2ccc(O)cc2)oc2cc(O[C@@H]3O[C@H](CO)[C@@H](O)[C@H](O)[C@H]3O[C@@H]3OC[C@](O)(CO)[C@H]3O)cc(O)c12 [fraction 13, apiin]	particularly high effect	–	unpleasant flavor improvement effect of parsley extract fraction relative to its parent solution ([2]; fraction aqueous solution added at 15 percent by weight to standard solution 8, FIG. 12-15): equivalent to that of the evaluation solution 9; added amount at which near maximum unpleasant flavor improvement effect was reached ([1]; 25, 50, 125, 250 ppm in standard solution 8, FIG. 16): ≥ 125 ppm
Phosphatidylethanolamine [PE]	–	high effects	–
